{"source": "patent US20080249176A1", "about": "“Methods and Compositions for the Treatment of Myocardial Conditions” (priority 2004, published 2008)", "key": {"[1]": {"test_system": "Na^+—K^+ pump", "assay": "Whole-cell patch clamp measurement of Na+-K+ pump current (Ip) in isolated cardiac myocytes", "assay_type": "cell-based, rabbit", "source_text": "The whole-cell patch clamp technique (Hamill et al, 1981; Buhagier et al, 2004; Hansen et al, 2002) was used to examine the effect of β3 adrenoceptor stimulation on the Na^+—K^+ pump in isolated cardiac myocytes.\nWith the whole-cell patch clamp technique myocytes are suspended in a tissue bath mounted on the stage of an inverted microscope. A fine glass pipette is attached to the cell membrane and gentle suction applied to rupture the membrane patch directly under the tip of the glass pipette. This allows the intracellular compartment of the myocyte to be perfused with solution contained in the patch pipette. It also allows access of drugs and compounds to the intracellular compartment. Control of the composition of the extracellular solution in the tissue bath is achievable. The technique also allows control of membrane voltage and measurement of total membrane current.\nThe Na^+—K^+ pump's 3Na^+:2K^+ exchange ratio generates a current (Ip) that can be measured as the shift in holding current of the patch-clamped myocyte that is induced by pump blockade with 100 μM ouabain.\nIn the whole-cell configuration the bath was perfused with modified Tyrode's solution which contained (in mmol/L) NaCl 140; KCl 5.6; CaCl2 2.16; MgCl2 1; NaH2PO4 0.44; glucose 10 and Na-glutamate 9; N-2-hydroxyethyl piperazine-N′-2-[…] (HEPES) 10. The solution was titrated to a pH of 7.40±0.01 at 35° C. with NaOH.\nFor measurement of Ip the system was switched to a superfusate that usually was identical to the modified Tyrode's solution except that it was nominally Ca^2+-free and contained 0.2 mmol/L CdCl2 and 2 mmol/L BaCl2.\nWide-tipped patch pipettes (4-5 μm) were filled with solutions containing (in mmol/L) HEPES 5; MgATP 2; ethylene glycol-bis(β-aminoethyl ether)-N,N,N′,N′-tetraacetic acid (EGTA) 5; KCl 70 mmol/L. Osmotic balance was maintained with 80 mmol/L tetramethylammonium chloride (TMA-Cl). The solutions were titrated to a pH of 7.05±0.01 at 35° C. with 1 mmol/L TMA-OH. Ip was identified at a holding potential of −40 mV as the shift in holding current induced by Na^+—K^+ pump blockade with 100 μmol/L ouabain 10-15 minutes after the whole-cell configuration had been established. […] Details of patch pipette characteristics and equipment and criteria for defining Ip have been reported previously (Buhagiar et al, 1999).\nThe whole-cell patch clamp technique was similar to that described above except that extracellular Na^+ was eliminated (NaCl was replaced with N-methyl-D-glucamine (NMG.Cl)) to rule out any possible influx of Na^+ across the cell membrane."}, "[2]": {"test_system": "PKA", "conditions": "H-89 0.5 μM; cited from earlier work"}, "[3]": {"test_system": "model of ischaemic cardiomyopathy with severe heart failure induced by repeated coronary microembolisation in sheep", "assay": "Sheep heart failure model, left ventricular end systolic pressure-volume relationship (ESPVR)", "assay_type": "in vivo", "conditions": "intravenous infusion, increasing doses, mean of 3 sheep, FIG. 6", "procedure": "To examine the effect of acute activation of the β3-receptor we used a model of ischaemic cardiomyopathy with severe heart failure induced by repeated coronary microembolisation in sheep (Huang, Y et al., Am J Physiol 286: H2141-50, 2004). The model is stable and reflects the human condition well (Huang et al, 2004).\nBRL 37344 was administered by intravenous infusion over a period of 8 min, starting with the lowest dose of the protocol. After an additional 5 min pressure-volume relationships were determined as described (Huang et al., 2004). The procedure was then repeated in an identical fashion using a larger dose of BRL 37344. The left ventricular end systolic pressure-volume relationship (ESPVR) was used as an index of cardiac performance. ESPVR is relatively independent of confounding factors such as pre- and after-load and heart rate, and is widely accepted as a good index of left ventricular function.\nResults are shown in FIG. 6, both before and after induction of heart failure. The independent variable on the abscissa indicates the dose in microgram BRL 37344 per kg weight of the sheep. Note the logarithmic increment in dose. The mean of ESPVR measured in 3 different sheep before and after induction of severe heart failure is shown on the ordinate. […]"}}, "data": [{"smiles": "CC(C)(C)NCC(O)COc1cccc2c1CC(O)C(O)C2", "note": "(stereo not drawn) [nadolol]", "values": [{"measurement": "Na,K-pump activity with nadolol in the presence of 100 nM BRL 37344 compared to 100 nM BRL 37344 alone", "setting": "[1]; nadolol 1 μM + 100 nM BRL 37344 in superfusate, FIG. 2", "result": "increased, although not quite significantly"}]}, {"smiles": "NC[C@H](O)c1ccc(O)c(O)c1", "note": "[NA, noradrenaline]", "values": [{"measurement": "NA-induced increase in Ip with β1/β2 blockade", "setting": "[1]; 10 nM NA + 1 μM nadolol, FIG. 4", "result": "persisted in the presence of nadolol"}, {"measurement": "NA-induced increase in Ip with PKA blockade", "setting": "[1]; 10 nM NA, 0.5 μM H-89 in patch pipette solution, FIG. 4", "result": "persisted with PKA blockade"}, {"measurement": "Effect on Ip", "setting": "[1]; 10 nM NA, FIG. 4", "result": "induced an increase in Ip"}]}, {"smiles": "Cl.Cl.O=S(=O)(NCCNCC=Cc1ccc(Br)cc1)c1cccc2cnccc12", "note": "[H-89, N-[2-(p-Bromocinnamylamino)ethyl]-5-isoquinolinesulfonamide dihydrochloride]", "values": [{"measurement": "Effect on PKA-mediated Na^+—K^+ pump inhibition", "setting": "[2]", "result": "abolishes PKA-mediated Na^+—K^+ pump inhibition"}, {"measurement": "Effect on 6-Bnz-cAMP-induced decrease in Ip", "setting": "[1]; H-89 0.5 μM + 6-Bnz-cAMP 100 μM in pipette solution, FIG. 5", "result": "reversed the 6-Bnz-cAMP-induced decrease in Ip"}]}, {"smiles": "C[C@H](Cc1ccc(OCC(=O)O)cc1)NC[C@H](O)c1cccc(Cl)c1", "note": "[BRL 37344]", "values": [{"measurement": "BRL 37344-induced stimulation of the Na,K-pump in the absence of extracellular Na^+", "setting": "[1]; 10 nM BRL 37344, NaCl replaced by NMG.Cl, FIG. 3", "result": "persisted in the absence of extracellular Na^+"}, {"measurement": "Na,K-pump activity at 100 nM in comparison with activity observed with 10 nM", "setting": "[1]; 100 nM vs 10 nM BRL 37344, pipette Na 10 mM, FIG. 1", "result": "apparent lower activity"}, {"measurement": "Na^+—K^+ pump current (Ip) in comparison with normal controls", "setting": "[1]; BRL 37344 1 nM, 10 nM and 100 nM, pipette Na 10 mM, FIG. 1", "result": "significantly stimulates"}, {"measurement": "Slope of linear regression of log dose vs. ESPVR", "setting": "[3]; normal sheep (before induction of heart failure)", "result": "trend towards a negative slope"}, {"measurement": "Slope of linear regression of log dose vs. ESPVR", "setting": "[3]; sheep after induction of severe heart failure", "result": "significantly positive"}]}, {"smiles": "O=C(Nc1ncnc2c1ncn2[C@@H]1O[C@@H]2COP(=O)(O)OC2C1O)c1ccccc1", "note": "(stereo in doubt) [6-Bnz-cAMP]", "values": [{"measurement": "Effect on Ip", "setting": "[1]; 100 μM 6-Bnz-cAMP in patch pipette solution, NA-free control superfusate, FIG. 5", "result": "significant decrease in Ip"}]}]}
